Measurements reported in US8288438B2, “Methods for avoiding edema in the treatment or prevention of PPARγ-responsive diseases, including cancer” (Metabolex, Inc., priority 2005, dated 2012).
Read-outs that look alike come from different tables or passages of the source.

How the values were obtained:
[1] = target: cytochrome P450 2C9 (Homo sapiens, UniProt P11712); settings: cited from earlier work
[2] = tested on: C57BL/6j ob/ob Mice; assay: glucose lowering activity of halofenate analogs in C57BL/6J ob/ob mice (Example 14); type: in vivo
Procedure: Male, 8-9 weeks old, C57BL/6J ob/ob mice were purchased from The Jackson Laboratory (Bar Harbor, Me., USA). Animals were housed (4-5 mice/cage) under standard laboratory conditions at 22±3° C. temperature and 50±20% relative humidity, and were maintained on a diet of Purina rodent chow and water ad libitum. Prior to treatment, blood was collected from the tail vein of each animal. Mice that had non-fasting plasma glucose levels between 250 and 500 mg/dl were used. Each treatment group consisted of 8-10 mice that were distributed so that the mean glucose levels were equivalent in each group at the start of the study. Mice were dosed orally by gavage once a day for 1-3 days with either vehicle, (−) halofenic acid, (±) analog 14, 29, 33, 34, 35, 36, 37, or 38 at 125 mg/kg or (−) analog 29, 36, 37 or 38 at 150 mg/kg. compounds were delivered in a liquid formulation containing 5% (v/v) dimethyl sulfoxide (DMSO), 1% (v/v) tween 80 and 0.9% (w/v) methylcellulose. The gavage volume was 10 ml/kg. Blood samples were taken at 6 hours after the each dose and analyzed for plasma glucose. Food intake and body weight were measured daily. Plasma glucose concentrations were determined calorimetrically using glucose oxidase method (Sigma Chemical Co, St. Louis, Mo., USA). Significant difference between groups (comparing drug-treated to vehicle-treated) was evaluated using the Student unpaired t-test.

[3] = tested on: type 2 diabetics with inadequate control on insulin; assay: randomized, double-blind, placebo-controlled, multi-centre studies on type 2 diabetics with inadequate control on insulin; type: in vivo, human
Excerpt: Example 9 presents the results of two randomized, double-blind, placebo-controlled, multi-centre studies on type 2 diabetics with inadequate control on insulin. […] Both studies were about 4 months long, with a stabilization/run in period for 2 to 4 weeks and a 3 month treatment period. Endpoints included fasting plasma glucose (FPG), HbA1c, weight, and the incidence of edema.

[4] = target: T1, PPARγ (Homo sapiens, UniProt P37231); assay: partial agonism on PPARγ (Example 8, FIG. 6); type: cell-based
T1 sequence (P37231 1-505): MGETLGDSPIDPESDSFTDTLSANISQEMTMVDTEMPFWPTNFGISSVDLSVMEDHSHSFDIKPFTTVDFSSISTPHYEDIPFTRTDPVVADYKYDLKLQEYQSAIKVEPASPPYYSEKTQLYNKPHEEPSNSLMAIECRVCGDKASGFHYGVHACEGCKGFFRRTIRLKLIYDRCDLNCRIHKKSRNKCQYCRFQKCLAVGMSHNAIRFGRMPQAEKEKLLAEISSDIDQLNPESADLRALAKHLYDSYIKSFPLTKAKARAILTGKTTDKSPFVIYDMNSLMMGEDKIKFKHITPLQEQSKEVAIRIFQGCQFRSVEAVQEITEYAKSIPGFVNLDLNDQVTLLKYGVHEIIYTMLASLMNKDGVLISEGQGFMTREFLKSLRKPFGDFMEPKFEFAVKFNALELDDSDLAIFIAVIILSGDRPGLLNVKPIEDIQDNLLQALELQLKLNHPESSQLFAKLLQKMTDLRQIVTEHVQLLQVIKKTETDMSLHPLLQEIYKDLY
Excerpt: Expression of reporter genes in response to compounds identified as binders of PPARγ may also be used to measure PPARγ activation. PPARγ may be co-transfected with reporter genes known in the art such as, for example, luciferase, β-galactosidase, alkaline phosphatase, fluorescent green protein, or chloramphenicol acetyltransferase. The transfected cells can be exposed to appropriate concentrations of candidate compounds with rosiglitazone as a positive control. Reporter gene expression will be induced by compounds that bind and activate PPARγ. Thus, compounds that induce reporter gene expression can be identified as activators of PPARγ (Forman, et al. (1997) PNAS 94:4312). Preferably the compounds induce reporter gene expression at levels at least 5-10 fold, more preferably 10-100 fold, more preferably 100-500 fold, more preferably 500-1000 fold, most preferably greater than 1000 fold greater than the negative control.
Example 8 illustrates the partial agonism of the (−) isomer of either halofenic acid or halofenate on PPARγ (see, FIG. 6).

[5] = tested on: rats; assay: separate animal studies: heart weight or fluid accumulation; type: in vivo; settings: therapeutically relevant doses, data not shown
[6] = tested on: human subjects also receiving glyburide; assay: 14 days of treatment in human subjects also receiving glyburide (FIG. 19, 20); type: in vivo; settings: after 14 days of treatment
Excerpt: The data for pioglitazone (Actos) is taken from Goldberg R B et al., Diabetes Care 28(7):1547-54 (2005), which is incorporated herein by reference.

[7] = tested on: monkeys; assay: separate animal studies: heart weight or fluid accumulation; type: in vivo; settings: therapeutically relevant doses, data not shown
[8] = (−) analogs, single dose 150 mg/kg
[9] = 125 mg/kg oral gavage once a day

cytochrome P450 2C9, sequence (P11712 whole entry): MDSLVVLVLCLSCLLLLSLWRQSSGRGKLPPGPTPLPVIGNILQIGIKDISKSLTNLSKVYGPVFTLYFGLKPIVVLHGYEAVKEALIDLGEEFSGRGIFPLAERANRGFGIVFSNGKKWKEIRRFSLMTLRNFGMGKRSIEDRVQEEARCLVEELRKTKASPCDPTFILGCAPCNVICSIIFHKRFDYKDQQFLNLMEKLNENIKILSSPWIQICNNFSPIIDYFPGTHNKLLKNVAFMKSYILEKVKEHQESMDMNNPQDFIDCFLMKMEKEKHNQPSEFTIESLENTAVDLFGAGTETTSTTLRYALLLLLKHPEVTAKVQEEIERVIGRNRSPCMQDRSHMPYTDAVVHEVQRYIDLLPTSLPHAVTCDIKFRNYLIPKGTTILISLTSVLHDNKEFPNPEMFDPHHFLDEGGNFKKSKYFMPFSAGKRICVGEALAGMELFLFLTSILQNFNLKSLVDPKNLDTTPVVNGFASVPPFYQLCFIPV

O=C(O)C(Oc1cccc(C(F)(F)F)c1)c1ccc(Cl)cc1 (single isomer, unassigned; (+)) [(+) enantiomer of halofenic acid, (+) 4-chlorophenyl-(3-trifluoromethylphenoxy)-acetic acid]
inhibition of cytochrome P450 2C9 [1]: quite potent

NC(=O)COC(=O)C(Oc1cccc(C(F)(F)F)c1)c1ccc(Cl)cc1 (single isomer, unassigned; (-)) [(−)Analog 37]
plasma glucose concentrations vs vehicle (in words) [2, 8]: significantly reduced plasma glucose concentrations at 6 hours

CC(=O)NCCOC(=O)C(Oc1cccc(C(F)(F)F)c1)c1ccc(Br)cc1 (racemic) [(±)Analog 29]
plasma glucose concentrations vs vehicle (in words) [2, 9]: significantly lowered plasma glucose concentrations at 6, 30 and 54 hours

CN(C)C(=O)COC(=O)C(Oc1cccc(C(F)(F)F)c1)c1ccc(Cl)cc1 (racemic) [(±)Analog 38]
plasma glucose concentrations vs vehicle (in words) [2, 9]: significantly lowered plasma glucose concentrations at 6, 30 and 54 hours

CC(=O)NCCOC(=O)C(Oc1cccc(C(F)(F)F)c1)c1ccc(Cl)cc1 (single isomer, unassigned; (-)) [(−) halofenate, (−) 2-acetamidoethyl 4-chlorophenyl-(3-trifluoromethylphenoxy)acetate]
plasma glucose levels as judged by HbA1c levels compared to placebo group ([3]; 600 mg, analysis removing sites 60 and 70, FIG. 13): lowered
fasting plasma glucose levels compared to placebo group ([3]; 600 mg, sites 60 and 70 removed, FIG. 14, even greater extent than the 400 mg dose): lowered
plasma glucose levels as judged by HbA1c levels compared to placebo group ([3]; 200- and 400 mg, sites 60 and 70 removed, FIG. 15): lowered
fasting plasma glucose levels compared to placebo group ([3]; 200- and 400 mg, sites 60 and 70 removed, FIG. 16): lowered
anti-edema activity ([3]; Phase II clinical trial): had anti-edema activity of its own
side effects: hepatoxicity, edema, heart failure, increased weight gain ([3]; Phase II clinical trial): largely free
adverse effects on selected parameters of upper GI tract, liver, blood, kidney ([3]; data not shown): not associated with an excess of adverse effects
effect on the HDL/cholesterol profile ([3]; data not shown): neutral effect
serum triglycerides ([3]; data not shown): lowered serum triglycerides substantially
weight gain compared to placebo group ([3]; dose of 600 mg, FIG. 18): did not induce weight gain
incidence of edema formation compared to combined placebo groups ([3]; dose range of 200- to 600 mg, both studies, FIG. 17): did not increase the incidence of edema formation
edema formation compared to placebo groups ([3]; doses of 200- and 400 mg, FIG. 9): prevented edema formation
weight gain compared to placebo group ([3]; doses of 200- and 400 mg, FIG. 10): did not induce weight gain
Discontinued due to AE, patients (%) ([3]; first study, 200 mg group): 3 (4.1%)
Discontinued due to AE, patients (%) ([3]; first study, 400 mg group): 3 (4.3%)
fasting plasma glucose levels compared to placebo group ([3]; first study, doses of 200- and 400 mg, FIG. 7): lowered
plasma glucose levels as judged by HbA1c levels compared to placebo group ([3]; first study, doses of 200- and 400 mg, FIG. 8): lowered
Discontinued due to AE, patients (%) ([3]; second study, 600 mg group): 0 (0%)
plasma glucose levels as judged by HbA1c levels, from baseline ([3]; second study, 600 mg, FIG. 12, placebo group demonstrated a comparable response): lowered
fasting plasma glucose levels compared to placebo group ([3]; second study, dose of 600 mg, FIG. 11): lowered
kind of PPARγ agonism [4]: partial agonist
antagonizing the agonist activity of rosiglitazone ([4]; FIG. 6): significantly antagonizing
increases in heart weight or fluid accumulation [5]: did not cause increases
blood glucose levels in patients also receiving glyburide ([6]; FIG. 19): substantially lower
hsCRP levels ([6]; FIG. 20): lower
increases in heart weight or fluid accumulation [7]: did not cause increases

O=C(O)C(Oc1cccc(C(F)(F)F)c1)c1ccc(Cl)cc1 (racemic) [racemic halofenic acid, 4-Chlorophenyl-(3-trifluoromethylphenoxy)-acetic Acid, reference compound]
kind of PPARγ agonism [4]: partial PPARγ agonists
inhibition of cytochrome P450 2C9 [1]: found to inhibit

O=C(O)C(Oc1cccc(C(F)(F)F)c1)c1ccc(Cl)cc1 (single isomer, unassigned; (-)) [(−)halofenic acid, (−) (3-trifluoromethylphenoxy) (4-chlorophenyl)acetic acid]
plasma glucose concentrations vs vehicle (in words) [2, 9]: significantly reduced plasma glucose concentrations at 6 hours
kind of PPARγ agonism [4]: partial agonist
ability to induce PPARγ expression ([4]; FIG. 6): a few fold
antagonizing the agonist activity of rosiglitazone ([4]; FIG. 6): significantly antagonizing
inhibition of cytochrome P450 2C9 ([1]; listed as (−) enantiomer of halofenic acid): about twenty-fold less active

O=C(NCCOC(=O)C(Oc1cccc(C(F)(F)F)c1)c1ccc(Cl)cc1)c1ccccc1 (single isomer, unassigned; (-)) [(−)Analog 36]
plasma glucose concentrations vs vehicle (in words) [2, 8]: significantly reduced plasma glucose concentrations at 6 hours

O=C(O)C(Oc1ccc(Cl)cc1-n1nc2ccccc2n1)c1ccccc1 (racemic) [Formula V]
kind of PPARγ agonism [4]: partial PPARγ agonists

CC(=O)NCCOC(=O)C(Oc1cccc(C(F)(F)F)c1)c1ccc(Br)cc1 (single isomer, unassigned; (-)) [(−)Analog 29]
plasma glucose concentrations vs vehicle (in words) [2, 8]: significantly reduced plasma glucose concentrations at 6 hours

CC(=O)NCCOC(=O)C(Oc1cccc(C(F)(F)F)c1)c1ccc(F)cc1 (racemic) [(±)Analog 14]
plasma glucose concentrations vs vehicle (in words) [2, 9]: significantly lowered plasma glucose concentrations at 6, 30 and 54 hours

CN(C)C(=O)COC(=O)C(Oc1cccc(C(F)(F)F)c1)c1ccc(Cl)cc1 (single isomer, unassigned; (-)) [(−)Analog 38]
plasma glucose concentrations vs vehicle (in words) [2, 8]: significantly reduced plasma glucose concentrations at 6 hours
